Activity calls are given as the source filed them.
Columns and labels:
[1] = target: COUP transcription factor 2 (Homo sapiens, UniProt P24468); experiment: Luminescence-based cell-based high throughput dose response assay to identify inhibitors of COUP-TFII (NR2F2).; assay type: functional;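 further: HEK293 cells transiently cotransfected with COUP-TFII expression vector and reporter; luciferase reporter luminescence driven by COUP-TFII from the pX2-168 reporter plasmid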
[2] = target: fMet-Leu-Phe receptor (Homo sapiens, UniProt P21462); experiment: FPR ligands, dose response (AID 519); assay type: functional
[3] = target: Endoplasmic reticulum aminopeptidase 1 (Homo sapiens, UniProt Q9NZ08); experiment: ERAP1 aminopeptidase inhibitors, dose response, biochemical, cherry-pick, set 2, plate reader (AID 743314)
[4] = target: T1, Oxysterols receptor LXR-beta (Homo sapiens, UniProt P55055); assay type: functional, cell-based;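 further: agonist activity at LXR measured by a cell-based luminescence readout across a dose range, run as a counterscreen for daf-12 agonists; HEK293 cells with Gal4-LXR fusion and GAL4-driven luciferase reporter; potency for activation of Gal4-LXR reporter so compounds are agonists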
T1 sequence (P55055 whole entry): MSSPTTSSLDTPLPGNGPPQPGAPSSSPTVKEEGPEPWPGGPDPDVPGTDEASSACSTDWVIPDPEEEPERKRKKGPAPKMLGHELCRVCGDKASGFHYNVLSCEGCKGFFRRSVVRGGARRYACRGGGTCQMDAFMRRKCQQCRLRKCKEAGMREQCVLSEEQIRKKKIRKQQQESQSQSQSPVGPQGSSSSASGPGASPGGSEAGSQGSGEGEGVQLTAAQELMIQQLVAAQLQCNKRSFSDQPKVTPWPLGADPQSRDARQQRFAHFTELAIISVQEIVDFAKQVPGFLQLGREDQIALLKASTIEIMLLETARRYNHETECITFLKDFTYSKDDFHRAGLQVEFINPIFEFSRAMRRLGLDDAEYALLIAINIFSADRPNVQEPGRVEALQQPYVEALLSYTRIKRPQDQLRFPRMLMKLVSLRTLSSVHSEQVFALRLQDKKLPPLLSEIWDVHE

[5] = tested on: H9c2; experiment: cells; assay type: functional, cell-based; settings: Rattus norvegicus, H9c2, Myocardium;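 further: confirmatory concentration-response retest of ultra-high-throughput screening hits for modulation of myocardial damage; cell death induced by hydrogen peroxide oxidative stress; compound pretreatment for 60 min then peroxide exposure for 2 h; potency is for protecting the cells against peroxide damage rather than for killing them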
[6] = target: Paired box protein Pax-8 (Homo sapiens, UniProt Q06710); experiment: inhibitors of PAX8-driven TPO luciferase reporter, dose response, RMG-I cells, cherry-pick (AID 687027); assay type: functional, cell-based;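 further: luciferase reporter driven by Pax8 target thyroperoxidase promoter measured by SteadyGlo luminescence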
[7] = non-specific cell cytotoxicity, dose response, cytotoxicity control for PAX8 inhibitor project, plate reader, dry powder samples (AID 743021); assay type: functional, cell-based

Sequence of fMet-Leu-Phe receptor (P21462 whole entry): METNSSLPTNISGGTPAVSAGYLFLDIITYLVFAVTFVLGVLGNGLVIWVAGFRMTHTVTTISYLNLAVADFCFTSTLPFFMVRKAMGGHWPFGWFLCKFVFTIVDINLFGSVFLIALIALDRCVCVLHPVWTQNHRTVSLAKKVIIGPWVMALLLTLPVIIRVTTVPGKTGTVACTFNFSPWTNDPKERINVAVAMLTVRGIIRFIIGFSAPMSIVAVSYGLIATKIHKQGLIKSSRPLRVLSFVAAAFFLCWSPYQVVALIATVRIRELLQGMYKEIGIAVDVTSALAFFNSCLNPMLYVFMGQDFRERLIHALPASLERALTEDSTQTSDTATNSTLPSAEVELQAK
Sequence of COUP transcription factor 2 (P24468 whole entry): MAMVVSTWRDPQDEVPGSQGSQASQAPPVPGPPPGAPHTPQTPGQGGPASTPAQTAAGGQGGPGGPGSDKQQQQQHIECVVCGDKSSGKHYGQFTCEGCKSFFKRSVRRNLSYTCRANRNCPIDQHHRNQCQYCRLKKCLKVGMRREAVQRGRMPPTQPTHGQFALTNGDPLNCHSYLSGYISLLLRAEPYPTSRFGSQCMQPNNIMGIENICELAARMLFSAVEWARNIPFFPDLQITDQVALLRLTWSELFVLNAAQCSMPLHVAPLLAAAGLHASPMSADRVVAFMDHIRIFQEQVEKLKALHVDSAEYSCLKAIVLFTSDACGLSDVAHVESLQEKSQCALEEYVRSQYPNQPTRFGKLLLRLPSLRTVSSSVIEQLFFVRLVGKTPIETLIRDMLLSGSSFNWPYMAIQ
Sequence of Endoplasmic reticulum aminopeptidase 1 (Q9NZ08 whole entry, the tested form may be a part): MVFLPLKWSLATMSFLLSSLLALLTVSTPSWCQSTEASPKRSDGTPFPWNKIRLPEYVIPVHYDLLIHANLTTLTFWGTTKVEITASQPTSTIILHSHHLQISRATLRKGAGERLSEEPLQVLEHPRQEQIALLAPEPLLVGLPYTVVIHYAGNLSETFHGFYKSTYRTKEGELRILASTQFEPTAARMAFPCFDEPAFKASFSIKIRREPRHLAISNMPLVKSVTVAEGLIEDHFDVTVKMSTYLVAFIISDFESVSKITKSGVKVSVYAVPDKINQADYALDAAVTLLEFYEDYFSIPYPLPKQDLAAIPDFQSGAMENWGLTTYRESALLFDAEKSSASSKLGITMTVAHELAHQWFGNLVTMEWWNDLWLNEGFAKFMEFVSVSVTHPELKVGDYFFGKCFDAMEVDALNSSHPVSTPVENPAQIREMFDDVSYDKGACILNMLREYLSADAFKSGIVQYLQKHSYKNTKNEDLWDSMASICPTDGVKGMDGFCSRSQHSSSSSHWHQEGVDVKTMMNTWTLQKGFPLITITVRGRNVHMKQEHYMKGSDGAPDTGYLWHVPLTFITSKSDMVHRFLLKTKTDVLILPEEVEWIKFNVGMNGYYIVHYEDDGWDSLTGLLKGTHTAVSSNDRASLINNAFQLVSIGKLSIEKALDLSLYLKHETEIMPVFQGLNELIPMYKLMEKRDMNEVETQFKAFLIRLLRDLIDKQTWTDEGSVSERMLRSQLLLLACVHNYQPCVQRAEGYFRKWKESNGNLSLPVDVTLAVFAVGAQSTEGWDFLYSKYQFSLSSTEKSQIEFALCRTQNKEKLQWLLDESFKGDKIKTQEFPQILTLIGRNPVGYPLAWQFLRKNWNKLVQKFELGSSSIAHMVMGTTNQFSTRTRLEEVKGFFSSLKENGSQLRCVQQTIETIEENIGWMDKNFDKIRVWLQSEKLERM
Sequence of Paired box protein Pax-8 (Q06710 whole entry): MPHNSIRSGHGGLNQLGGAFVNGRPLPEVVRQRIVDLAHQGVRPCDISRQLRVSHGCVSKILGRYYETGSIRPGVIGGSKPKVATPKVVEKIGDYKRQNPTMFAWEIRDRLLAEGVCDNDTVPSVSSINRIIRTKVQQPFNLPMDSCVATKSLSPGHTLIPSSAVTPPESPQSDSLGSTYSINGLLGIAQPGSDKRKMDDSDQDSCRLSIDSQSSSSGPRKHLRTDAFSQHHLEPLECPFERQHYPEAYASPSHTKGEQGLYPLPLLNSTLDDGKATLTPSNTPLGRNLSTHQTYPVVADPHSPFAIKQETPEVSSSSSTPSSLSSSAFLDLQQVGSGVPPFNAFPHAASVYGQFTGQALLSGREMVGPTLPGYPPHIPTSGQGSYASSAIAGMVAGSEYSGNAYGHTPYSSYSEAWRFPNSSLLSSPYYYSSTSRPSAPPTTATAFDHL

NC(=O)[C@H]1CC2(CC(c3cccc(NC(=O)COc4ccc(Cl)cc4)c3)=NO2)CN1C(=O)Cc1ccc([N+](=O)[O-])cc1 (some centres not stated)
IC50 [1]: 5.32 µM (active)

COc1ccc(Cl)cc1-n1c(=S)sc2c(O)nc(SCC(=O)NCC3CCCO3)nc21 (configuration not stated)
Ki [2]: 9.3 µM (active)

O=C(NCCc1ccncc1)[C@H]1N[C@H]2c3ccc(/C=C/c4ccccc4)c(=O)n3C[C@H]2[C@@H]1CO
AC50 [3]: 14.1 µM (active)

CCOC(=O)c1csc(-c2sccc2Br)n1
EC50 [4]: > 67.6 µM (inactive)

C=C1C(C)C2C(Cc3ccccc3)NC(=O)C23OC(=O)/C=C/C(O)CCCC(C)C/C=C/C3C1O (configuration not stated)
IC50 [5]: > 79 µM (inactive)
AC50 [6]: 3.15 µM (active)
AC50 [7]: 3.36 µM (active)
